Measured values from patent publication US8742106B2 (Novartis AG, priority 2009, dated 2014).

Legend:
human orexin 2 receptors [1] = target: T1, human orexin 2 receptors (Homo sapiens (Human), UniProt O43614); experiment: Calcium Accumulation in Cells (FLIPR), antagonism of orexin A; assay type: cell-based; conditions: antagonism of orexin A, Cheng-Prusoff corrected; read-out: FLIPR hOx2R Ki
How it was run: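 Cells expressing human orexin 2 receptor, loaded with Fluo4-AM (2 μM) plus probenecid (0.1 mM) for 1 h, then washed. Antagonism read as inhibition of the orexin A calcium fluorescence signal (FLIPR).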

human orexin 1 receptors [2] = target: T2, human orexin 1 receptors (Homo sapiens (Human), UniProt O43613); experiment: Radioligand Binding Assay II ([3H]-SB649868 competition, cell membranes); conditions: read-out: binding II hOx1R Kd
T2 sequence (O43613 whole entry): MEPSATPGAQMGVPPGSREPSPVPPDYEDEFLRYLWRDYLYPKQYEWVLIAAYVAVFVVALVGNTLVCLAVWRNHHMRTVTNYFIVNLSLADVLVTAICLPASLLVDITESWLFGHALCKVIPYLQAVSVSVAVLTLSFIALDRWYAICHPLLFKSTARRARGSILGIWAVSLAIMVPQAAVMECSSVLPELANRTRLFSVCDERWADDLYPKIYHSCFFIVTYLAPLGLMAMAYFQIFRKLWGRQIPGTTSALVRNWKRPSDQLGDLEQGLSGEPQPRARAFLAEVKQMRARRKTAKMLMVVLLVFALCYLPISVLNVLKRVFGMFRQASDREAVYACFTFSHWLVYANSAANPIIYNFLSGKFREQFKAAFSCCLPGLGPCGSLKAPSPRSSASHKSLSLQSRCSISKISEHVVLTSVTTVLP
Method: (§1) Radioligand Binding Assay II
(§2) For crude cell membrane preparations, cells (CHO, Chinese hamster ovary or HEK, human embryonic kidney) expressing human orexin 1 or human orexin 2 receptors, were washed with HEPES (10 mM, pH 7.5), scraped off the culture plates with the same buffer, and centrifuged at 4° C. for 5 min at 2500×g. The cell pellet was either stored at −80° C. or used directly. Before the experiments, cell membranes were re-suspended in binding assay buffer (10 mM HEPES, 0.5% (w/v) bovine serum albumin, pH 7.5) by homogenisation with a Polytron homogeniser at 50 Hz for 20 s. Cell membranes were also used as made available by commercial providers.
(§3) Bound radioactivity was measured, and data were analysed with the program XLFIT or Graphpad Prism. Protein concentration was determined according to the Bradford/BioRad Protein Assay Kit.
(§4) In competition experiments, cell homogenates (150 μl) were incubated in assay buffer (10 mM HEPES, pH 7.5, 0.5% (w/v) bovine serum albumin, 5 mM MgCl2, 1 mM CaCl2, and tween 0.05%) for 1 h at room temperature with about 1 nM of the radioligand [^3H]-SB649868, 66 Ci/mmole, 50 μl), and with various concentrations of compounds of the invention (50 μl) in triplicates; non-specific binding was determined in the presence of almorexant (10 μM). Reactions were terminated by vacuum filtration, 3 washes of ice cold wash buffer (Tris-HCl pH 7.4/10 mM, with NaCl 154 mM). Competition data is expressed in Table 2 as Kd [μM].

human orexin 1 receptors [3] = target: T2, human orexin 1 receptors; experiment: Calcium Accumulation in Cells (FLIPR), antagonism of orexin A; assay type: cell-based; conditions: antagonism of orexin A, Cheng-Prusoff corrected; read-out: FLIPR hOx1R Ki
human orexin 2 receptors [4] = target: T1, human orexin 2 receptors; experiment: Radioligand Binding Assay II ([3H]-SB649868 competition, cell membranes); conditions: read-out: binding II hOx2R Kd
Method: as §1, §2, §3
as §4, with “mM).” for “mM). Competition data is expressed in Table 2 as Kd [μM].”

T1 sequence (O43614 whole entry): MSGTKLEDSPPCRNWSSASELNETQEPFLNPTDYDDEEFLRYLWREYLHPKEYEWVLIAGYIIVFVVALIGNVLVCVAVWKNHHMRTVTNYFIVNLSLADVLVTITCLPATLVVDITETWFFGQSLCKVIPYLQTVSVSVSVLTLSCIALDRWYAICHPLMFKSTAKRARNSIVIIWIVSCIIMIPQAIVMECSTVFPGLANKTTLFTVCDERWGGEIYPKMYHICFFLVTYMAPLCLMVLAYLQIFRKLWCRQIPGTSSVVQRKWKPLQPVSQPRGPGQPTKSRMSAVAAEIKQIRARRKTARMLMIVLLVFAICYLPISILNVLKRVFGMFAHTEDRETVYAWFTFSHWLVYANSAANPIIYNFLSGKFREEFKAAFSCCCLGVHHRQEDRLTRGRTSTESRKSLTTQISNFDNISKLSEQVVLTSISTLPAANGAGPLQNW

| SMILES | Ki (human orexin 2 receptors [1]) | Kd (human orexin 1 receptors [2]) | Ki (human orexin 1 receptors [3]) | Kd (human orexin 2 receptors [4]) |
| --- | --- | --- | --- | --- |
| Cc1ccc([C@H](C)NC(=O)COc2cc(C(F)F)c3c(-c4ccccc4)nn(C)c3n2)cc1 [Example 6.21, (S)-2-(4-(difluoromethyl)-1-methyl-3-phenyl-1H-pyrazolo[3,4-b]pyridin-6-yloxy)-N-(1-p-tolylethyl)acetamide] | 7 nM | 37 nM | 29 nM | 30 nM |
| Cc1ccc([C@H](C)NC(=O)COc2ccc3c(C(C)(C)C)nn(C)c3n2)cc1 [Example 6.25, (S)-2-(3-tert-butyl-1-methyl-1H-pyrazolo[3,4-b]pyridin-6-yloxy)-N-(1-p-tolylethyl)acetamide] | 65 nM | 242 nM | 545 nM | 164 nM |
| CCOc1ccc2c(c1)CC[C@@H]2NC(=O)COc1cc(C)c2c(C3CC3)nn(C)c2n1 [Example 6.68, (S)-2-(3-cyclopropyl-1,4-dimethyl-1H-pyrazolo[3,4-b]pyridin-6-yloxy)-N-(5-ethoxy-2,3-dihydro-1H-inden-1-yl)acetamide] | 151 nM | 52 nM | 71 nM | 317 nM |
| Cc1ccc([C@H](C)NC(=O)COc2cc(C)c3c(-c4cc(C)oc4C)nn(C)c3n2)cc1 [Example 6.30, (S)-2-(3-(2,5-dimethylfuran-3-yl)-1,4-dimethyl-1H-pyrazolo[3,4-b]pyridin-6-yloxy)-N-(1-p-tolylethyl)acetamide] | 62 nM | 19 nM | 10 nM | 168 nM |
| COc1ccnc(-c2nn(C)c3nc(OCC(=O)N[C@@H](C)c4ccc(C)cc4)cc(C)c23)n1 [Example 5.3, (S)-2-(3-(4-methoxypyrimidin-2-yl)-1,4-dimethyl-1H-pyrazolo[3,4-b]pyridin-6-yloxy)-N-(1-p-tolylethyl)acetamide] | 39 nM | 7 nM | 10 nM | 19 nM |
| Cc1ccc([C@H](C)NC(=O)COc2cc(C)c3c(-c4nccs4)nn(C)c3n2)cc1 [Example 5.2, (S)-2-(1,4-dimethyl-3-(thiazol-2-yl)-1H-pyrazolo[3,4-b]pyridin-6-yloxy)-N-(1-p-tolylethyl)acetamide] | 1 nM | 3 nM | 6 nM | 3 nM |
| COc1ccccc1-c1nn(C)c2nc(OCC(=O)N[C@@H](C)c3ccc(C)cc3)ccc12 [Example 6.24, (S)-2-(3-(2-methoxyphenyl)-1-methyl-1H-pyrazolo[3,4-b]pyridin-6-yloxy)-N-(1-p-tolylethyl)acetamide] | 105 nM | 45 nM | 133 nM | 150 nM |
| Cc1ccc(C(C)(C)NC(=O)COc2cc(C)c3c(C4CC4)nn(C)c3n2)cc1 [Example 6.6, 2-(3-cyclopropyl-1,4-dimethyl-1H-pyrazolo[3,4-b]pyridin-6-yloxy)-N-(2-p-tolylpropan-2-yl)acetamide] | 47 nM | 1010 nM | 606 nM | 138 nM |
| Cc1ccc2c(n1)CC[C@@H]2NC(=O)COc1cc(C(F)(F)F)c2c(-c3cc(C)oc3C)nn(C)c2n1 [Example 6.79, (S)-2-(3-(2,5-dimethylfuran-3-yl)-1-methyl-4-(trifluoromethyl)-1H-pyrazolo[3,4-b]pyridin-6-yloxy)-N-(2-methyl-6,7-dihydro-5H-cyclopenta[b]pyridin-5-yl)acetamide] | 7 nM | 34 nM | 23 nM | 90 nM |
| COc1ccc2c(c1)CC[C@@H]2NC(=O)COc1cc(C(F)(F)F)c2c(C3CC3)nn(C)c2n1 [Example 6.43, (S)-2-(3-cyclopropyl-1-methyl-4-(trifluoromethyl)-1H-pyrazolo[3,4-b]pyridin-6-yloxy)-N-(5-methoxy-2,3-dihydro-1H-inden-1-yl)acetamide] | 3 nM | 206 nM | 234 nM | 18 nM |
| Cc1ccc([C@H](C)NC(=O)COc2cc(C)c3c(C4CC4)nn(C)c3n2)cc1 [Example 7.11, (S)-2-(3-cyclopropyl-1,4-dimethyl-1H-pyrazolo[3,4-b]pyridin-6-yloxy)-N-(1-p-tolylethyl)acetamide] | 24 nM | 18 nM | 50 nM | 17 nM |
| Cc1cc(OCC(=O)NC(C)c2ccc3c(ccn3C)c2)nc2c1c(C1CC1)nn2C (stereo not shown) [Example 6.59, 2-(3-cyclopropyl-1,4-dimethyl-1H-pyrazolo[3,4-b]pyridin-6-yloxy)-N-(1-(1-methyl-1H-indol-5-yl)ethyl)acetamide] | 63 nM | 70 nM | 127 nM | 162 nM |
| Cc1ccc([C@H](C)NC(=O)COc2cc(C)c3c(-c4cscn4)nn(C)c3n2)cc1 [Example 4.10, (S)-2-(1,4-dimethyl-3-(thiazol-4-yl)-1H-pyrazolo[3,4-b]pyridin-6-yloxy)-N-(1-p-tolylethyl)acetamide] | 5 nM | 5 nM | 5 nM | 6 nM |
| Cc1ccc2c(c1)CC[C@@H]2NC(=O)COc1cc(C)c2c(C3CC3)nn(C)c2n1 [Example 6.44, (S)-2-(3-cyclopropyl-1,4-dimethyl-1H-pyrazolo[3,4-b]pyridin-6-yloxy)-N-(5-methyl-2,3-dihydro-1H-inden-1-yl)acetamide] | 14 nM | 67 nM | 223 nM | 28 nM |
| Cc1ccc([C@H](C)NC(=O)COc2cc(C)c3c(-c4ncco4)nn(C)c3n2)cc1 [Example 4.2, (S)-2-(1,4-dimethyl-3-(oxazol-2-yl)-1H-pyrazolo[3,4-b]pyridin-6-yloxy)-N-(1-p-tolylethyl)acetamide] | 32 nM | 10 nM | 67 nM | 17 nM |
| Cc1ccc([C@H](C)NC(=O)COc2cc(C)c3c(-c4cccc(C)n4)nn(C)c3n2)cc1 [Example 5.7, (S)-2-(1,4-dimethyl-3-(6-methylpyridin-2-yl)-1H-pyrazolo[3,4-b]pyridin-6-yloxy)-N-(1-p-tolylethyl)acetamide] | 56 nM | 10 nM | 46 nM | 21 nM |
| COc1ccc2c(c1)CC[C@@H]2NC(=O)COc1cc(C(F)F)c2c(C3CC3)nn(C)c2n1 [Example 6.42, (S)-2-(3-cyclopropyl-4-(difluoromethyl)-1-methyl-1H-pyrazolo[3,4-b]pyridin-6-yloxy)-N-(5-methoxy-2,3-dihydro-1H-inden-1-yl)acetamide] | 10 nM | 63 nM | 83 nM | 14 nM |
| Cc1ccc([C@H](C)NC(=O)COc2cc(C)c3c(-c4ccc(C)cn4)nn(C)c3n2)cc1 [Example 4.9, (S)-2-(1,4-dimethyl-3-(5-methylpyridin-2-yl)-1H-pyrazolo[3,4-b]pyridin-6-yloxy)-N-(1-p-tolylethyl)acetamide] | 5 nM | 14 nM | 12 nM | 19 nM |
| Cc1cc(-c2nn(C)c3nc(OCC(=O)NC(C)c4c(C)nn(C)c4C)cc(C)c23)c(C)o1 (stereo not shown) [Example 6.33, 2-(3-(2,5-dimethylfuran-3-yl)-1,4-dimethyl-1H-pyrazolo[3,4-b]pyridin-6-yloxy)-N-(1-(1,3,5-trimethyl-1H-pyrazol-4-yl)ethyl)acetamide] | 170 nM | 14 nM | 11 nM | 126 nM |
